Test results from patent US9242948B2, “Diepoxy compound, process for producing same, and composition containing the diepoxy compound” (Sumitomo Chemical Company, Limited, priority 2009, dated 2016).

Experiment: Measurement of solubility in methyl isobutyl ketone
Format: physicochemical
Details: for Solubility: compound (g)×100/[compound (g)+methyl isobutyl ketone (g)]; for Solubility relative to that of the compound represented by the formula (A): from Table 1
Method: <Measurement of Solubility>
by the formula (1-1) which was obtained in Example 2, the compound represented by the formula (1-2) which was obtained in Example 6, and the compound represented by the following formula (A)
[drawing 31] (compound (g)×100/[compound (g)+methyl isobutyl ketone (g)], % by weight) were measured.

Row | Solubility (40° C.) | Solubility (65° C.) | Solubility relative to that of the compound represented by the formula (A) | Structure (SMILES)
1 | 2.36 % by weight | 4.16 % by weight | more than twice as big | O=C(OC1CCC(c2ccc(OCC3CO3)cc2)CC1)c1ccc(OCC2CO2)cc1 (centres unmarked) [formula (1-1), 4-{4-(2,3-epoxypropoxy)phenyl}cyclohexyl 4-(2,3-epoxypropoxy)benzoate]
2 | 2.01 % by weight | 4.70 % by weight | more than twice as big | Cc1cc(C(=O)OC2CCC(c3ccc(OCC4CO4)cc3)CC2)ccc1OCC1CO1 (centres unmarked) [formula (1-2), 4-{4-(2,3-epoxypropoxy)phenyl}cyclohexyl 4-(2,3-epoxypropoxy)-3-methylbenzoate]
3 | 1.10 % by weight | 2.00 % by weight | – | Cc1cc(OC(=O)c2ccc(OCC3CO3)cc2)ccc1OC(=O)c1ccc(OCC2CO2)cc1 (centres unmarked) [formula (A), reference compound]
